Source: PMC12434536, “Radiosynthesis and Preclinical Evaluation of a Carbon-11 Labeled Phosphodiesterase 7 Inhibitor for PET Neuroimaging” (ACS Medicinal Chemistry Letters, 2025)
Read-outs that look alike come from different tables or passages of the source. One block for each compound: values may come before it.

Assays:
[1] = tested on: PDE7; conditions: Figure 1, literature compounds; cited from earlier work
[2] = tested on: PDE4; conditions: Figure 1, literature compounds; cited from earlier work
[3] = tested on: PDE4B; conditions: Figure 1, literature compounds; cited from earlier work
[4] = tested on: PDE7A; conditions: Figure 1, literature compounds; cited from earlier work
[5] = tested on: PDE7A1; conditions: Figure 1, literature compounds; cited from earlier work
[6] = tested on: PDE4D3; conditions: Figure 1, literature compounds; cited from earlier work
[7] = tested on: PDE4A4; conditions: Figure 1, literature compounds; cited from earlier work
[8] = tested on: PDE7B; conditions: Figure 1, literature compounds; cited from earlier work
[9] = biological target: T1, HEK293-PDE7B recombinant cell lines (Homo sapiens, UniProt Q9NP56); test: In vitro cell uptake and blocking of [11C]27; format: cell-based
T1 construct: host or cells: HEK293
Procedure: Control study: HEK293-PDE7B Recombinant cells (catalog#60412, BPS Bioscience) and HEK293 control cells (catalog# CRL-1573, ATCC) – both in logarithmic growth phase – were plated in a 24 well plate (2 × 10^5 cells per well) and cultured overnight. After 24 hr, each well was added 2 μCi of [ 11C]27, and incubated at 37 °C for 30 min or 60 min. The radioactive medium was aspirated and collected in a tube. The residual cells were washed twice with PBS, and then collected in the same tube. The cells were lysed with 1 N NaOH (200 μL) and washed twice with PBS, all the resulting solutions were collected in one tube.
The radioactivity in the collected supernatant and cell lysis buffer (600 μL/tube) was measured using a Cobra Model 5002/5003 gamma counter, respectively.
Blocking study: HEK293-PDE7B cells in logarithmic growth phase were plated in 24 well plate (2 × 10^5 cells per well) and cultured overnight. After 24 h, each well was added 2 μCi of [11C]27 with or without unlabeled reference compound 27 or BRL50481, respectively. The resulting culture medium contained 2 μCi of [ 11C]27, 1 µM of unlabeled compound 27 or BRL50481, and 5% DMSO. Cells were incubated at 37 °C for 60 min and samples were collected as described for the control study. The cell uptake was calculated according to the following eq.: cell uptake% = A lysis buffer/(A lysis buffer+Asupernate) (n = 4)

[10] = tested on: GSK3; conditions: Figure 1, literature compounds; cited from earlier work
[11] = tested on: PDE7; test: microPET imaging in mice; format: in vivo, C57BL/6 mice; conditions: p.i.
Procedure: C57BL/6 mice (female; 8 weeks, 20–25 g) and Sprague-Dawley rats (male;
Rodent PET scans were carried out using a Genisys 4 PET (Sofie Biosciences, Culver, CA,
manufacturer’s acquisition software. Volumes of interest, including whole brain, cortex,

[12] = Lipophilicity by shake-flask method; format: physicochemical; conditions: pH 7.4, n-octanol/PBS, n = 3
Procedure: The general procedure for lipophilicity measurement was previously described, 4 with minor modification in this work. Briefly, the measurement of LogD value was carried out by mixing [11C]27 (radiochemical purity > 99%) with n-octanol (3.0 g) and PBS (0.1 M, 3.0 g) in a test tube. Both n-octanol and PBS were pre-saturated with each other prior to use. The tube was first vortexed for 5 min, followed by centrifugation (~3500-4000 rpm) for an additional 5 min. PBS and n-octanol were aliquoted, weighed and the radioactivity in each component was measured using a Cobra Model 5002/5003 gamma counter. The LogD was determined by Log [ratio of radioactivity in n-octanol and aqueous layer, respectively] (n = […]
For the evaluation of plasma protein binding,5 55.5 MBq radiotracer was added to 150 μL of plasma, which was pre-incubated under 37 °C for 5 min (n = 3). The samples were incubated at 37 °C for 10 min. To each 150 μL of radiotracer-plasma solution was added 300 μL of ice-cold PBS and all samples were briefly vortexed. […] The radioactivity (in Becquerel) was measured in the protein fraction (Aprotein), filtrate, and filter unit using a gamma counter (Wizard, PerkinElmer), Atotal was calculated as the sum of radioactivity, and the free fraction f u was calculated according to the following eq.: f u = 1-

[13] = In vitro stability of the formulated tracer (PBS with 10% ethanol; serum); format: in vitro ADME; conditions: 30, 60, 90 min; PBS containing 10% ethanol and serum of rodents, NHPs, humans
[14] = Whole-body ex vivo biodistribution; format: in vivo; conditions: CD-1 mice
Procedure: PET imaging in nonhuman primates
Cynomolgus monkeys used for PET/CT scan were deprived of food for 12h but allowed to drink water at any time. Animals (Male, bodyweight 5.0-5.2 kg) were anesthetized with ketamine, placed into the scanner (GE Discovery Elite 690, USA), and maintained with 2% isoflurane and 98% oxygen. A solution of [11C]27 (6.24–9.84 mCi) was injected into the monkey via a venous catheter, followed by a dynamic PET scan. For the blocking study, the blocking reagent reference compound 27 (0.4 or 1.0 mg/kg, iv) was used, followed by the injection of [11C]27. Time-activity curves of each brain region were extracted from the corresponding VOIs and brain uptake was decay-corrected and expressed as SUV. biodistribution studies in miceWhole-body ex vivo
A solution of [11C]27 (1.85 MBq/100 µL) was injected into CD-1 mice via the tail vein.
Animals were sacrificed at 5, 15, 30, and 60 min post radiotracer injection (n= 4 for each time point). […] The radioactivity in these tissues was measured using a Cobra Model 5002/5003 gamma counter, and all radioactivity measurements were decay corrected based on the half-life of carbon-11. The results are expressed as the percentage of injected dose per gram of wet tissue (%ID/g).

[15] = tested on: PDE7; test: PET imaging in rats (baseline and self-blocking); format: in vivo, Sprague-Dawley rats; conditions: rats
Procedure: page 10: All animal experiments were approved by the Institutional Animal Care and Use Committee of Massachusetts General Hospital or the National Institute of Radiological Sciences (Japan). C57BL/6 mice (female; 8 weeks, 20-25 g) and Sprague-Dawley rats (male; 8-9 weeks; 264-310 g) were kept on a 12 h light/12 h dark cycle and were allowed food and water ad libitum. Rodent PET scans were carried out using a […] (Sofie Biosciences, Culver, CA, USA) or a Siemens Inveon PET/CT system. Animals were kept under anesthesia using 1-2% (v/v) isoflurane in oxygen during the scan. The radiotracer (1.85 MBq for mice; 42-53 MBq for rats) was injected into the tail vein via a preinstalled catheter. A dynamic scan in 3D list mode was acquired for 60 min. The PET dynamic images were reconstructed using the manufacturer's acquisition software. Volumes of interest, including whole brain, cortex, striatum, hippocampus, thalamus and cerebellum were placed using AMIDE / PMOD software. The radioactivity was decay-corrected and expressed as standardized uptake value (SUV = radioactivity per mL tissue / injected radioactivity × bodyweight). S8

[16] = tested on: PDE7; test: PET imaging in nonhuman primates (baseline and self-blocking); format: in vivo, Cynomolgus monkeys; conditions: monkeys
[17] = Radiometabolite analysis in brain and plasma; format: in vivo, SD rats; conditions: n = 2; for parent fraction in plasma: rat plasma
Procedure: After intravenous injection of [11C]27 through the tail vein, SD rats were sacrificed at 5 min and 30 min post injection. Blood samples were collected and centrifuged at 14,000 rpm for 3 min at 4 °C to separate the plasma. The supernatant was collected and added to an ice-cooled test tube containing 100 μL of CH 3CN. After vortex for 10 s, the mixture was centrifuged at 14000 rpm for 3 min at 4 °C for deproteinization. The supernatant was collected, and the process was repeated until no precipitations were observed when CH3CN was added. The rat brain was immediately dissected, homogenized with 400 μL of ice-cooled CH3CN, and then centrifuged at 14,000 rpm for 5 min at 4 °C. The supernatant was collected in a test tube containing 100 μL of ice-cooled CH 3CN, and the process (vortex and centrifuge) was repeated until no precipitations were observed when CH3CN was added. An aliquot of the supernatant (100 µL), obtained from the brain homogenate, was injected into and analyzed by a radio-HPLC system. The percentage of [11C]27 to total radioactivity (corrected for decay) on the HPLC charts was calculated as (peak area for [11C]27/total peak area) × 100. The same procedure was used for metabolite analysis in plasma.
Statistical analysis was performed by Student’s two-tailed t-test, and asterisks were used to indicate statistical significance: * p < 0.05, ** p ≤ 0.01, *** p ≤ 0.001 and ****p < 0.0001.

[18] = tested on: PDE7; conditions: cited from earlier work

T1 sequence (Q9NP56 whole entry): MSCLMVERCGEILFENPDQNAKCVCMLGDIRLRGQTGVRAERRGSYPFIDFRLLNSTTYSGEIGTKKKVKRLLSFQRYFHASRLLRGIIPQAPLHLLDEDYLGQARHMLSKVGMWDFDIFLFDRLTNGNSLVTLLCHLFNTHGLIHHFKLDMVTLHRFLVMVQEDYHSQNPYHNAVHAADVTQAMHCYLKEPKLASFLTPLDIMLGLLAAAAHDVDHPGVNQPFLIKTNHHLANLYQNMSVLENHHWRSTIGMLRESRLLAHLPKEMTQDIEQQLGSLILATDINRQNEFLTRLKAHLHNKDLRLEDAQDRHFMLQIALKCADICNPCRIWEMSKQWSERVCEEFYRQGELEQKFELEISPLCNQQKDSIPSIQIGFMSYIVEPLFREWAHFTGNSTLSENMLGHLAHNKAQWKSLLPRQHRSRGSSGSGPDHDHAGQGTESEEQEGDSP

Compound: O=C1NS(=O)(=O)N(Cc2ccc(Cl)c(Cl)c2)c2ccccc21 [Compound 1]
IC50 [1]: 8 µM
IC50 [2]: 19 µM

Compound: COc1ccc(C(=O)CN2c3c(sc4ccccc34)C(=O)NS2(=O)=O)cc1 [Compound 2]
IC50 [2]: 30 µM

Compound: Nc1nc2c(nc(Br)n2C2CCCc3cccc(Br)c32)c(=O)[nH]1 (centres unmarked) [Compound 3]
IC50 [1]: 1.21 µM

Compound: CCOC(=O)c1sc(Nc2nc(NCc3ccc(S(N)(=O)=O)cc3)c3c(ncn3CC)n2)nc1C [Compound 4]
IC50 [1]: 0.011 µM

Compound: CCCCOc1nc2c(c(=O)n(C)c(=O)n2C)n1CCCC(=O)Nc1cc(C(C)(C)C)ccc1O [Compound 5]
IC50 [3]: 5.43 µM
IC50 [4]: 5.07 µM

Compound: CCn1c(NC(C)C)nc2c(C3CCN(C(C)=O)C3)csc2c1=O (centres unmarked) [Compound 6]
IC50 [3]: 1.9 µM
IC50 [4]: 0.015 µM

Compound: CCOC(=O)c1sc(Nc2nc(N3CCNCC3)c3c(n2)N(Cc2cc(OC)c(OC)c(OC)c2)CC3)nc1C [Compound 7]
IC50 [1]: 0.006 µM

Compound: O=[N+]([O-])c1ccc(Sc2ccncc2)c(Cl)c1 [Compound 10]
IC50 [1]: 0.18 µM

Compound: COc1cc(COC(=O)c2ccc(-c3ccccc3)o2)cc(OC)c1OC [Compound 11]
IC50 [5]: 5.1 µM

Compound: Cn1nc(-c2ccc(C(N)=O)cc2)s/c1=N\C1CCCCC1 [Compound 12]
IC50 [5]: 0.061 µM
IC50 [6]: 15.3 µM

Compound: O=C(Nc1ccc(N2CCOCC2)cc1)c1cn(Cc2c(F)cccc2Cl)c2ccc(=O)[nH]c2c1=O [Compound 13]
IC50 [5]: 0.013 µM
IC50 [7]: > 1 µM

Compound: O=c1[nH]c(=S)[nH]c2cc(F)c(F)cc12 [Compound 15]
IC50 [4]: 0.074 µM

Compound: Cn1c(-c2ccoc2)nc(=O)c2ccccc21 [Compound 16]
IC50 [4]: 0.096 µM

blockade of [11C]27 cell uptake ([9]; blocker 1 μM, 60 min incubation, PDE7B overexpressing HEK293 cells, n = 4): ~55%
Compound: Cc1ccc([N+](=O)[O-])cc1S(=O)(=O)N(C)C [Compound 17]
IC50 [4]: 0.15 µM
IC50 [8]: 12.1 µM

Compound: O=C1Nc2ccc(Cl)c(Cl)c2C2(CCCCC2)N1 [Compound 18]
IC50 [1]: 0.014 µM

Compound: O=C1Nc2c(Br)cccc2C2(CCCCC2)N1 [Compound 19]
IC50 [1]: 0.07 µM

Compound: COc1ccc(-c2cc3c(n2-c2ccc(S(=O)(=O)Nc4nc(C)cc(C)n4)cc2)CCC(N2CCN(C)CC2)C3)cc1C (centres unmarked) [Compound 20]
IC50 [4]: 0.014 µM
IC50 [2]: 0.63 µM

Compound: COc1ccc(C2=NN(C3CCN(C(=O)N4CCOCC4)CC3)C(=O)C3CC=CCC23)cc1Cl (centres unmarked) [Compound 21]
IC50 [1]: 0.023 µM
IC50 [2]: 0.0023 µM

Compound: COc1ccccc1N1CCN(CCCC(=O)Nc2ccc(C(C)(C)C)cc2)CC1 [Compound 22]
IC50 [3]: 96 µM
IC50 [4]: 27 µM

Compound: c1ccc(-c2nc(=NCc3cccnc3)sn2-c2ccccc2)cc1 [Compound 23]
IC50 [1]: 0.38 µM
IC50 [10]: 1.28 µM

time to peak SUV in brain [11]: ≤ 2 min
logD [12]: 3.67 ± 0.04
radioactivity accumulation in heart ([14]; 5 min p.i.): up to 24 % ID/g
cardiac uptake ([14]; within 60 min): less than 2%
plateau of brain uptake ([15]; at 20 min postinjection): 0.5 SUV
highest SUV values in brain ([15]; at approximately 5 min postinjection): > 2 SUV
peak SUV (SUVmax) in brain ([16]; baseline): 3 SUV
time of peak SUV in brain ([16]; p.i.): about 3 min
intact parent fraction in brain ([17]; rat brain, 5 min): More than 98%
parent fraction in brain homogenates ([17]; rat brain, 30 min postinjection): more than 75%
parent fraction in plasma ([17]; 5 min p.i.): 70% ± 18%
parent fraction in plasma ([17]; 30 min p.i.): 19% ± 0.6%
radioactivity uptake in HEK293-PDE7B cells versus control cells ([9]; 30 and 60 min incubation): 6–7 fold
Compound: [11CH3]Oc1ccc(Cl)c2c1C1(CCCCC1)NC(=O)N2 [[^11C]27]
in vitro stability [13]: no obvious degradation or radiolysis was found

Compound: O=C1Nc2c(Cl)ccc(OCC[18F])c2C2(CCCCC2)N1 [[^18F]-MICA-003]
affinity to PDE7 ([18]; ref Thomae et al.): 17 nM

Compound: O=C1Nc2c(Cl)ccc(Oc3c(F)cccc3C(=O)N3CC([18F])C3)c2C2(CCCCC2)N1 [[^18F]-P7-2302]
affinity to PDE7 ([18]; earlier 18F-isotopologue of the same spiro quinazoline structure): 0.18 nM
